Data as given in US9682151B2, “Peptides whose uptake in cells is controllable” (The Regents of the University of California, priority 2009, dated 2017).

Key:
[1] = Stability of pDox by analytical HPLC and mass spectra; type: physicochemical
Description: pDox dendrimers were synthesized with the intent to coat the dendrimers with one pDox and three Cy5s thus making the dendrimers brightly fluorescent in the far-red. The pDox dendrimer samples that were incubated overnight in pH 7.4 and pH 5 buffer as described previously were injected on HPLC/mass spec. HPLC was run using 30-60% Acetonitrile in water with 0.5% TFA gradient on a reverse phased column. Doxorubicin (470-490) and Cy5 (645-655) absorbance peaks were monitored to reveal a new doxorubicin peak in the pH 5 sample. This peak was proven to be free pDox based upon the mass spec. For quantitation, dendrimers were run on another HPLC using a different C18 reverse phase column with a 10-90% ACN gradient column with 0.14% TFA which has a fluorescence detector. […] To quantify the amount of pDox that was hydrolyzed off the dendrimer, 200 pmols of sample was injected and compared to a standard curve of 12, 36, and 60 pmols of pDox alone.
pDox was synthesized and reacted with the dendrimer via hydrazone linker as done with doxorubicin dendrimers discussed earlier. […] The labeling was so low that the absorbance was undetectable by UV Spectroscopy. It was only by fluorescence spectra measured on a plate reader that it was clear pDox was conjugated to the dendrimers but this was not able to be quantified. […]

[2] = test system: HT1080 bearing mice; test: Maximum tolerated dose of pDox
[3] = Fluorescence uptake of Cy5-labeled selective transport molecules in tumor and muscle (Table 2), MDA-MB 435; type: in vivo, mice; settings: nude, mouse, in vivo, iv; MDA-MB 435 xenograft
Description: (§1) Xenografts with HT1080 human fibroscarcoma cells (ATCC) or MDA-MB 435 human melanoma cells were used. Allografts were generated in the lab with 8119 murine mammary adenocarcinoma cells and B16F10 murine melanoma cells. 1×10^6 cells (either 8119 or BI6F10) were injected intramuscularly into the left flank of albino C57BL/6 mice. Tumor allografts were monitored until tumor size was approximately 1 cm in largest diameter (approximately 7-10 days).
(§2) Briefly 30 mg tissues was homogenized and heated in SDS buffer, frozen, and then imaged by fluorescence. SUV ((moles/g tissue)/(moles injected/weight of the animal)) values were determined by comparing experimental fluorescence to standard curves derived by peptide spiked tissue processed similarly.
(§3) To test whether selective transport molecules are taken up differentially between tumor and normal tissue, allografts derived from spontaneous mammary adenocarcinoma tumors in transgenic mice (line 8119, MMTV-PyMT) and the murine melanoma cell line B16F10 transplanted into immune competent mice, and human cancer cell lines (MDA-MB 435 melanoma and HT1080 fibrosarcoma) xenografted into nude mice, were imaged after intravenous injection of Cy5-labeled selective transport molecules and sufficient time for elimination of uncleaved selective transport molecules. Cy5 was chosen as a labeling marker because of its reduced tissue absorption in the near infrared range.

[4] = test system: MDA-MB 435 human melanoma cells; test: as above; type: in vivo, mice
Description: as §1, §2, §3

[5] = Fluorescence uptake of Cy5-labeled selective transport molecules in tumor and muscle (Table 2), HT1080; type: in vivo, mice; settings: nude, mouse, in vivo, iv; HT1080 xenograft
Description: as §1, §2, §3

[6] = test system: HT1080 human fibroscarcoma cells; test: as above; type: in vivo, mice; settings: HT1080 xenograft
Description: as §1, §2, §3

[7] = Fluorescence uptake of Cy5-labeled selective transport molecules in tumor and muscle (Table 2), 8119; type: in vivo, mice; settings: albino C57BL/6, mouse, in vivo, iv; 8119 allograft
Description: as §1, §2, §3

[8] = test system: 8119 murine mammary adenocarcinoma cells; test: as above; type: in vivo, mice; settings: 8119 allograft
Description: as §1, §2, §3

[9] = Fluorescence uptake of Cy5-labeled selective transport molecules in tumor and muscle (Table 2), B16F10; type: in vivo, mice; settings: albino C57BL/6, mouse, in vivo, iv; B16F10 allograft
Description: as §1, §2, §3

[10] = test system: B16F10 murine melanoma cells; test: as above; type: in vivo, mice; settings: B16F10 allograft
Description: as §1, §2, §3

[11] = test system: HT1080 cells; test: Residual tumor cell quantification with Alu PCR after guided surgery; type: in vivo, mice; settings: free 10 nmoles 6 hours, dendrimer 2 nmoles 48 hours prior to surgery
Description: Animals used for quantification of residual tumor cells after surgery were performed on xenograft of HT1080 cells generated as detailed above Animals were anesthetized with 80 mg/kg ketamine and 40 mg/kg midazolam. Following skin incision and retraction, tumors were removed with microsurgical technique using a dissecting microscope (Zeiss, Lumar).
Fluorescence guidance of tumor excision was performed as detailed above for the survival studies with GFP, free selective transport molecule (10 nmoles; 6 hours prior to surgery) or dendrimer selective transport molecule (2 nmoles; 48 hours prior to surgery). For animals in the GFP guidance arm, the surgical field was assessed through the dissecting scope with excitation and emission parameters for GFP. […] Following completion of tumor resection, the remaining surgical bed was resected with at least a 5 mm margin in all contiguous dimensions and analyzed for Alu sequences. Alu PCR analysis of the remaining surgical bed for residual tumor cells were performed. […]
To quantify the efficacy of tumor excision with selective transport molecule guidance, we used Alu PCR to measure residual human (cancer) cells remaining in the tumor bed after surgical excision.

COc1cccc2c1C(=O)c1c(O)c3c(c(O)c1C2=O)C[C@@](O)(C(=O)CO)C[C@@H]3O[C@H]1C[C@H](N2C=CCC2)[C@H](O)[C@H](C)O1 [pDox, 2-pyrrolino doxorubicin]
stability [1]: severe stability problems | effect on tumor growth ([2]; 0.1 mg/kg): significantly slowed tumor growth | lethality ([2]; 0.3 and 1 mg/kg, two mice each): died within 24 hours | maximum tolerated dose ([2]; HT1080 bearing mice): 0.1 mg/kg

CCN1C(=CC=CC=CC2=[N+](CCCCCC(=O)NCCN3C(=O)CC(SC[C@@H](NC(=O)[C@@H](CCCNC(=N)N)NC(=O)[C@@H](CCCNC(=N)N)NC(=O)[C@@H](CCCNC(=N)N)NC(=O)[C@@H](CCCNC(=N)N)NC(=O)[C@@H](CCCNC(=N)N)NC(=O)[C@@H](CCCNC(=N)N)NC(=O)[C@@H](CCCNC(=N)N)NC(=O)[C@@H](CCCNC(=N)N)NC(=O)[C@@H](CCCNC(=N)N)NC(=O)CNC(=O)[C@H](C)NC(=O)[C@H](CSC)NC(=O)CNC(=O)[C@H](CC(C)C)NC(=O)[C@@H]4CCCN4C(=O)COCCNC(=O)[C@@H](CCC(=O)O)NC(=O)[C@@H](CCC(=O)O)NC(=O)[C@@H](CCC(=O)O)NC(=O)[C@@H](CCC(=O)O)NC(=O)[C@@H](CCC(=O)O)NC(=O)[C@@H](CCC(=O)O)NC(=O)[C@@H](CCC(=O)O)NC(=O)[C@@H](CCC(=O)O)NC(=O)CCC(=O)O)C(N)=O)C3=O)c3ccc(S(=O)(=O)[O-])cc3C2(C)C)C(C)(C)c2cc(S(=O)(=O)O)ccc21 (single isomer, unassigned) [Free Selective Transport Molecules]
tissue to tissue ratio [3]: 2.45 | Ratio (tumor to muscle) ([4]; MDA-MB 435 xenograft): 2.45 | Muscle (fluorescence uptake) ([4]; MDA-MB 435 xenograft, Cy5 label, intravenous): 0.29 ± 0.068 | Tumor (fluorescence uptake) ([4]; MDA-MB 435 xenograft, Cy5 label, intravenous, SUV defined): 0.17 ± 0.05 | contrast between tumor and adjacent normal tissue ([4]; same figures as the MDA-MB 435 ratios of Table 2): 2.45 fold | tissue to tissue ratio [5]: 3.82 | Ratio (tumor to muscle) [6]: 3.82 | Muscle (fluorescence uptake) ([6]; Cy5 label, intravenous): 0.11 ± 0.08 | Tumor (fluorescence uptake) ([6]; Cy5 label, intravenous): 0.42 ± 0.08 | tissue to tissue ratio [7]: 3.5 | Ratio (tumor to muscle) [8]: 3.5 | Muscle (fluorescence uptake) ([8]; Cy5 label, intravenous): 0.11 ± 0.06 | Tumor (fluorescence uptake) ([8]; Cy5 label, intravenous): 0.39 ± 0.12 | tissue to tissue ratio [9]: 2.4 | Ratio (tumor to muscle) [10]: 2.4 | Muscle (fluorescence uptake) ([10]; Cy5 label, intravenous): 0.10 ± 0.03 | Tumor (fluorescence uptake) ([10]; Cy5 label, intravenous): 0.24 ± 0.06 | log [DNA] (residual tumor DNA in surgical bed) [11]: 4.67±0.33
